Assay results from patent US20230406883A1, “COMPOUNDS AND THEIR USE IN TREATMENT OF TACHYKININ RECEPTOR MEDIATED DISORDERS” (Embark Biotech ApS, priority 2020, published 2023).
Like-named read-outs stand apart in the source and are kept apart here. Numbered stars: 1 amine (or outer) side, 2 acyl side, 3 side chain; on linkers, the order of the positions; unused ones are H or OH. Square brackets hold non-standard residues; d marks the D form. Peptide text beside a SMILES is read from it. * marks the point of attachment. C18 diacid = O=C(O)CCCCCCCCCCCCCCCCC(=O)*; γGlu = O=C(O)[C@H](CCC(=O)[*:2])N[*:1]; Stearoyl = CCCCCCCCCCCCCCCCCC(=O)*; NMeL = CN[C@@H](CC(C)C)C(=O)O; hSer = N[C@@H](CCO)C(=O)O; Nle = CCCC[C@H](N)C(=O)O; AEEA = NCCOCCOCC(=O)O; Aib = CC(C)(N)C(=O)O

Tests used:
in vivo = experiment: in vivo; set-up: species or system mice; conditions: mouse, sc, 0.5 mg/kg, Half-life
Method: Pharmacokinetics: To evaluate the in vivo half-life of individual peptide analogues we used wild type lean mice at around 10 weeks of age injected once with a peptide analogue. For each sample time point 3-4 mice were used and blood was drawn from the submandibular vein at indicated time points following injection. Prior to injection mice were given ad libitum access to standard chow diet. Mice were subcutaneously injected with 0.5 mg/kg peptide analogue in a volume of 2 ml/kg. The amount of peptide analogue and metabolite(s) present in blood samples were measured by TF-LC-MS and MetID-LC-MS, respectively. Sample preparation: One volume of plasma is precipitated with three volumes of ethanol (with internal standard). The mixture is centrifuged at 13000 g for 20 min. One volume of supernatant is diluted with two volumes of Milli-Q water (1% formic acid). Calibration curve: peptide analogue was spiked into blank mouse plasma. Range: 0.5 to 2000 nM (linear 1/x2).

hNK2R [1] = biological target: T1, hNK2R (Homo sapiens, UniProt P21452); experiment: Indirect human serum albumin binding by IP3 assay, 0.2% ovalbumin vs 1% HSA; type: cell-based
T1 construct: host or cells: COS-7
T1 sequence (P21452 1-398): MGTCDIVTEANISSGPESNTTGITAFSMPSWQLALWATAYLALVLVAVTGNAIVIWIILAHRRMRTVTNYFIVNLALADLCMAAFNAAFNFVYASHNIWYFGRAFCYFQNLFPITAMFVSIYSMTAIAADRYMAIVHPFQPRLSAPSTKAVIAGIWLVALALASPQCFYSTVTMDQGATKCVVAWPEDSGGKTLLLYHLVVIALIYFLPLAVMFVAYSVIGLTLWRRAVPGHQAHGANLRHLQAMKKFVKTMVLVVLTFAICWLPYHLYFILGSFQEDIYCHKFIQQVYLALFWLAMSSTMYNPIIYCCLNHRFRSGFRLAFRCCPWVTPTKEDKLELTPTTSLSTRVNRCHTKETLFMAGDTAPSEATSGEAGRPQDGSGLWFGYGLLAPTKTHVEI
Method: (§1) Agonist-induced G-protein coupled receptor (GPCR) activation was measured by an Inositol-1,4,5-Trisphosphate [^3H] Radioreceptor Assay (IPs Assay). Assays were carried out using COS-7 cells transiently transfected by calcium phosphate transfection with a vector pcDNA3.1(+) encoding one of the indicated receptors (Genscript). Briefly, DNA mixed with CaCl2 (2 M) and TE-buffer (10 mM Tris-HCl, 1 mM EDTA, pH 7.5) was dropwise added to 2×HBS (50 mM HEPES, 280 mM NaCl, 1.5 mM NaH2PO4, pH 7.2) and incubated for 45 min at room temperature (22±2° C.). The mixture and a final concentration of 100 μM Chloroquine were added to the cells and left to incubate for 5 hours at 37° C. under standard cell culture conditions (10% CO2) before changing medium to fresh medium containing 5 μl/mL Myo-[2-^3H(N)]-inositol (labeling medium).
The indirect HSA binding IP3 assay takes advantage of the tachykinin receptors' ability to induce production of the inositol trisphosphate (IP3) second messenger upon agonist (ligand) binding on receptor expressing cells following an initial ^3H-inositol labeling period. The assay relies on the assumption that high peptide HSA binding will result in low receptor-mediated production of the second messenger IP3. Thus, the assay is an indirect assessment HSA binding.
Assay solutions used: Wash buffer (HBSS), Assay buffer 0.2% OvAlb (HBSS+10 mM LiCl and 0,2% w/v ovalbumin) or Assay buffer 1% HSA (HBSS+10 mM LiCl and 1% w/v HSA), Lysis buffer (10 mM formic acid), and SPA YSI beads (12.5 mg/ml in H2O). The assay was performed the day after transfection. Briefly, labelling medium was aspirated, and plates were washed ×1 in wash buffer before adding 100 μl assay buffer 0.2% OvAlb or assay buffer 1% HSA, pre-incubated for 30 min followed by 120 min incubation with agonist, both at 37° C. After incubation, plates were immediately placed on ice and the incubation medium was aspirated and 40 μl of 10 mM formic acid per well was added. Plates were incubated for at least 30 min on ice. 60 μl (1 mg/well) SPA YSI beads/well was pipetted into a solid white 96 wells plate and 35 μl of the lysis solution was transferred to the plate before covering plates with seal cover and shaking for 10 min. (max speed). Centrifuge plates and leave for 8 hours at room temperature before counting the plates in a MicroBeta plate counter (Perkin Elmer).

hNK2R [2] = biological target: T1, hNK2R; experiment: IP3 assay (inositol trisphosphate, 3H-myoinositol) in transiently transfected COS-7 cells; type: cell-based; conditions: for EC50: 0.2% ovalbumin buffer
Outline: (§2)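 COS-7 cells were transiently transfected with receptor plasmid and labelled with ³H-myo-inositol. Cells were lysed in formic acid, and ³H-inositol phosphates were captured on SPA YSI beads and counted.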

hNK1R = biological target: T2, hNK1R (Homo sapiens, UniProt P25103); experiment: as above; type: cell-based; conditions: for EC50: 0.2% ovalbumin buffer
T2 construct: host or cells: COS-7
Outline: as §2

hNK3R = biological target: T3, hNK3R (Homo sapiens, UniProt P29371); experiment: as above; type: cell-based; conditions: for EC50: 0.2% ovalbumin buffer, read-out: hNK3, IP3 EC50
T3 construct: host or cells: COS-7
T3 sequence (P29371 1-465): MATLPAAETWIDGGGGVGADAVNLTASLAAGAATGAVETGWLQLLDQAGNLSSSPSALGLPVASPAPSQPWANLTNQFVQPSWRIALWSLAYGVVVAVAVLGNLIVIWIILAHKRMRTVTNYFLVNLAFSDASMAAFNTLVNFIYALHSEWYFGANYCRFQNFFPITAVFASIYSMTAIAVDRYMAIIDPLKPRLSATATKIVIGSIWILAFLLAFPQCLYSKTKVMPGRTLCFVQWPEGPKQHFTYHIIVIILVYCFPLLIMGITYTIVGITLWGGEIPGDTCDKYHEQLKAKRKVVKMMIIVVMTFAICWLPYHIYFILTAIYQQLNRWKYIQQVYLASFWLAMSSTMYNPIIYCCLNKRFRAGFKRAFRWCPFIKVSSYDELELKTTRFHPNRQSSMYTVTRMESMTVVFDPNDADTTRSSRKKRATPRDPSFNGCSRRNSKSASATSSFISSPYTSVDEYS
Outline: as §2

hNK2R [3] = biological target: T1, hNK2R; experiment: 3H-NKA competitive binding on transfected COS-7 cells; conditions: competition with 3H-NKA, 4 h at 4 C
Method: as §1, with “Assays” for “Agonist-induced G-protein coupled receptor (GPCR) activation was measured by an Inositol-1,4,5-Trisphosphate [^3H] Radioreceptor Assay (IPs Assay). Assays”, “maintenance medium.” for “medium containing 5 μl/mL Myo-[2-^3H(N)]-inositol (labeling medium).”
The ^3H-NKA binding assay measures peptide-receptor binding by a competitive principle of receptor binding between radioactively labelled (3H) NKA (tracer) and synthesized peptide ligands on live cells expressing the receptor of interest. Assay solutions used: TKR buffer (50 mM Tris/HCl pH 7.5, 5 mM MnCl2, and 150 mM NaCl), wash buffer (TKR buffer+0.2% w/v OvAlb), binding buffer (wash buffer+0.1 mg/ml Bacitracin), and tracer solution (binding buffer+˜15000 cpm/well ^3H-tracer). The assay was performed on ice the day after transfection.
Briefly, maintenance medium was aspirated, and plates were washed ×1 in cold wash buffer before adding 100 μl cold binding buffer and placing at 4° C. to let plates cool. The cold plates were added indicated peptides (ligand) immediately followed by addition of cold tracer solution (˜15000 cpm/well). Plates were immediately moved to 4° C. and incubated for 4 hours. After incubation, binding was stopped by wash ×2 with cold wash buffer before adding 225 μl Ultima Gold XR. Plates were shaken at medium speed for approximately 30 min and left overnight at room temperature before counting the plates in a MicroBeta plate counter (Perkin Elmer).

hNK2R [4] = biological target: T1, hNK2R; experiment: Hithunter cAMP assay (Gs-coupling) in transfected COS-7 cells; type: cell-based
Method: as §1, with “As a secondary measure of agonist-induced” for “Agonist-induced”, “activation cyclin adenosine monophosphate (cAMP)” for “activation”, “the Hithunter cAMP-assay from DiscoverX.” for “an Inositol-1,4,5-Trisphosphate [^3H] Radioreceptor Assay (IPs Assay).”, “maintenance medium.” for “medium containing 5 μl/mL Myo-[2-^3H(N)]-inositol (labeling medium).”
The cAMP-assay takes advantage of the tachykinin receptors' ability to induce production of the cAMP second messenger upon agonist (ligand) binding on receptor expressing cells. Production of cAMP stems from receptor coupling to Gs-protein although coupling to Gq-protein (IP3-production) is considered the primary signalling mechanism by tachykinin receptors.
The assay was performed the day after transfection. Briefly, maintenance medium was aspirated, and plates were washed ×1 in HBSS before adding assay buffer (HBSS+1 mM IBMX), pre-incubated for 30 min at 37° C. followed by 15 min incubation with agonist (ligand) at 37° C. After incubation, plates were subjected to cell lysis and anti-cAMP-antibody incubation as described by manufacturer. Luminescence was measured with EnVision Multimode Plate Reader from Perkin Elmer.

[5] = 0.2% ovalbumin, read-out: hNK2R, Albumin binding EC50 (nM)-ovalbumin
[6] = 1% HSA, read-out: hNK2R, Albumin binding EC50 (nM)-1% human serum albumin
[7] = COS-7 cells, figure legends: percent of 10^-6 M NKA

T2 sequence (P25103 whole entry): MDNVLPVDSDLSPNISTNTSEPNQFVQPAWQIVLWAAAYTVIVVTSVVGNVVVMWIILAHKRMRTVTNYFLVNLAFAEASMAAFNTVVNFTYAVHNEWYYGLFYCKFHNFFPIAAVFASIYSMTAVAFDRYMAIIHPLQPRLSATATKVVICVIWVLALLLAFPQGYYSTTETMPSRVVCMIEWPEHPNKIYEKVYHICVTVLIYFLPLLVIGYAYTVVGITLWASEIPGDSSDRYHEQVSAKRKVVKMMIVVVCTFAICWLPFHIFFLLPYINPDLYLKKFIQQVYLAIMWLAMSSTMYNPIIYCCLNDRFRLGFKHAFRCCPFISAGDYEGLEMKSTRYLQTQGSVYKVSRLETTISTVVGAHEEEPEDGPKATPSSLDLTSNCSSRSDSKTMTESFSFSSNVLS

Row | half-life (in vivo) [min] | hNK2R, cAMP Efficacy (hNK2R [4]) [%] | hNK2R, IP3 Efficacy (hNK2R [2]) [%] | hNK1R, IP3 Efficacy (hNK1R) [%] | hNK3, IP3 Efficacy (hNK3R) [%] | Structure (SMILES) | hNK2R, Albumin binding Efficacy (%)-ovalbumin (hNK2R [1]; 0.2% ovalbumin) [%] | EC50 (hNK2R [1]; [5]) [nM] | hNK2R, Albumin binding Efficacy (%)-1% human serum albumin (hNK2R [1]; 1% HSA) [%] | EC50 (hNK2R [1]; [6]) [nM] | EC50 (hNK2R [2]; COS-7 cells) [nM] | hNK2R, IP3 Efficacy (hNK2R [2]; [7]) [%] | EC50 (hNK1R; COS-7 cells) [nM] | hNK1R, IP3 Efficacy (hNK1R; [7]) [%] | EC50 (hNK3R; COS-7 cells) [nM] | hNK3, IP3 Efficacy (hNK3R; [7]) [%] | EC50 (hNK2R [3]) [nM] | EC50 (hNK2R [4]; COS-7 cells) [nM] | hNK2R, cAMP Efficacy (hNK2R [4]; COS-7 cells) [%]
1 | 102 |  |  |  |  | CCCCCCCCCCCCCCCCCC(=O)N[C@@H](CCC(=O)NCCOCCOCC(=O)NCCOCCOCC(=O)N[C@@H](CC(=O)O)C(=O)N[C@@H](CCCCN)C(=O)N[C@@H](Cc1ccc(O)cc1)C(=O)N[C@H](C(=O)NCC(=O)N(C)[C@@H](CC(C)C)C(=O)N[C@@H](CCCC)C(N)=O)C(C)C)C(=O)O [compound 390, *Asp;Lys;Tyr;Val;Gly;NmLeu;Nle;NH2] ({Stearoyl-γGlu-AEEA-AEEA}-DKYVG[NMeL][Nle]-NH2) | 100 | 1 | 90 | 0.7 | 1 | 100 | 3.9 | 88 | 14 | 100 |  |  | 
2 |  |  |  |  |  | CCCCCCCCCCCCCCCCCC(=O)N[C@@H](CCC(=O)NCCOCCOCC(=O)NCCOCCOCC(=O)N[C@@H](CC(=O)O)C(=O)N[C@@H](CCCCN)C(=O)N[C@@H](Cc1ccc(O)cc1)C(=O)N[C@H](C(=O)NCC(=O)N(C)[C@@H](CC(C)C)C(=O)N[C@@H](CCOC)C(N)=O)C(C)C)C(=O)O [compound 391, *Asp;Lys;Tyr;Val;Gly;NmLeu;Metox;NH2] ({Stearoyl-γGlu-AEEA-AEEA}-DKYVG[NMeL][hSer](Me)-NH2) | 100 | 0.9 | 90 | 0.6 | 0.9 | 90 | 3.4 | 100 | 4 | 100 |  |  | 
3 |  |  |  |  |  | COCC[C@H](NC(=O)[C@H](CC(C)C)NC(=O)C(C)(C)NC(=O)[C@@H](NC(=O)[C@H](Cc1ccc(O)cc1)NC(=O)[C@H](CCCCN)NC(=O)[C@H](CC(=O)O)NC(=O)COCCOCCNC(=O)COCCOCCNC(=O)CC[C@H](NC(=O)CCCCCCCCCCCCCCCCC(=O)O)C(=O)O)C(C)C)C(N)=O [compound 394, *Asp;Lys;Tyr;Val;Aib;Leu;Metox;NH2] ({C18 diacid-γGlu-AEEA-AEEA}-DKYV[Aib]L[hSer](Me)-NH2) |  |  |  |  | 5 | 90 | ~940 | 35 |  | 0 | ~108 | 306 | 100
4 |  | 0 | 68 | 0 | 0 | CCCC[C@H](NC(=O)[C@H](CC(C)C)NC(=O)C(C)(C)NC(=O)[C@@H](NC(=O)[C@H](Cc1ccc(O)cc1)NC(=O)[C@H](CCCCN)NC(=O)[C@H](CC(=O)O)NC(=O)COCCOCCNC(=O)COCCOCCNC(=O)CC[C@H](NC(=O)CCCCCCCCCCCCCCCCC(=O)O)C(=O)O)C(C)C)C(N)=O [compound 395, *Asp;Lys;Tyr;Val;Aib;Leu;Nle;NH2] ({C18 diacid-γGlu-AEEA-AEEA}-DKYV[Aib]L[Nle]-NH2) |  |  |  |  | 9 |  |  |  |  |  | ~104 |  | 
